# Laboratory results: ChEMBL document CHEMBL3046207, “Synthesis of a new series of 2-(2-oxo-2H-chromen-3-yl)-5H-chromeno[4,3-b]pyridin-5-ones by two facile methods and evaluation of their antimicrobial activity” (2013)
# Legend:
# [1] = test system: Salmonella typhimurium; experiment: Antibacterial activity against Salmonella enterica typhimurium MTCC 98 by broth dilution method; assay type: functional, Salmonella enterica subsp. enterica serovar Typhimurium
# [2] = test system: Aspergillus niger; experiment: Antifungal activity against Aspergillus niger MTCC 282 by broth dilution method; assay type: functional
# [3] = test system: Staphylococcus aureus; experiment: Antibacterial activity against Staphylococcus aureus MTCC 96 by broth dilution method; assay type: functional
# [4] = test system: Candida albicans; experiment: Antifungal activity against Candida albicans MTCC 227 by broth dilution method; assay type: functional
# [5] = test system: Escherichia coli; experiment: Antibacterial activity against Escherichia coli MTCC 443 by broth dilution method; assay type: functional
# [6] = test system: Bacillus subtilis; experiment: Antibacterial activity against Bacillus subtilis MTCC 441 by broth dilution method; assay type: functional
Compound,MIC [1] [µg/mL],MIC [2] [µg/mL],MIC [3] [µg/mL],MIC [4] [µg/mL],MIC [5] [µg/mL],MIC [6] [µg/mL]
O=c1oc2ccc3ccccc3c2cc1-c1ccc2c(=O)oc3ccccc3c2n1,200,> 1000,100,250,250,125
NYSTATIN,–,100,–,100,–,–
COC1=CC(=O)C[C@@H](C)[C@]12Oc1c(Cl)c(OC)cc(OC)c1C2=O [GRISEOFULVIN],–,100,–,500,–,–
O=c1oc2ccc3ccccc3c2cc1-c1ccc2c(=O)oc3ccc(Cl)cc3c2n1,100,1000,62.5,500,62.5,200
COc1cccc2cc(-c3ccc4c(=O)oc5ccc(C)cc5c4n3)c(=O)oc12,200,500,100,1000,250,62.5
COc1cccc2cc(-c3ccc4c(=O)oc5c(C)cccc5c4n3)c(=O)oc12,250,> 1000,250,200,250,125
O=c1oc2ccccc2cc1-c1ccc2c(=O)oc3ccccc3c2n1,200,500,200,1000,125,250
O=c1oc2ccccc2cc1-c1ccc2c(=O)oc3ccc(Cl)cc3c2n1,100,> 1000,125,> 1000,125,200
Cc1cccc2c1oc(=O)c1ccc(-c3cc4ccccc4oc3=O)nc12,250,> 1000,200,500,200,250
CC1(C)S[C@@H]2[C@H](NC(=O)[C@H](N)c3ccccc3)C(=O)N2[C@H]1C(=O)O [AMPICILLIN],100,–,250,–,100,250
Cc1cccc2c1oc(=O)c1ccc(-c3cc4c(ccc5ccccc54)oc3=O)nc12,100,> 1000,100,1000,62.5,125
Cc1ccc2oc(=O)c3ccc(-c4cc5ccccc5oc4=O)nc3c2c1,125,> 1000,250,500,125,200
COc1cccc2cc(-c3ccc4c(=O)oc5ccc(Cl)cc5c4n3)c(=O)oc12,250,500,200,> 1000,200,62.5
COc1cccc2cc(-c3ccc4c(=O)oc5ccccc5c4n3)c(=O)oc12,250,1000,100,1000,200,200
CCn1cc(C(=O)O)c(=O)c2cc(F)c(N3CCNCC3)cc21 [NORFLOXACIN],10,–,10,–,10,100
Cc1ccc2oc(=O)c3ccc(-c4cc5c(ccc6ccccc65)oc4=O)nc3c2c1,250,500,62.5,1000,250,200
